Patent US20240115527A1, “CXCR1/CXCR2 INHIBITORS FOR USE IN TREATING MYELOFIBROSIS” (Icahn School of Medicine at Mount Sinai, priority 2020, published 2024)

System: MF CD34+ cells
Experiment: Clonal assays of MF CD34+ cells; JAK2V617F allele status of picked hematopoietic colonies
Type: cell-based, human
Protocol: Individual hematopoietic colonies were randomly picked from clonal assays of CD34^+ cells from 6 MF cases and the JAK2V617F allele status was determined.
IL-8 alone increased the absolute numbers of JAK2V617F+ colonies, and the addition of Ladarixin reduced the numbers of JAK2V617F positive colonies stimulated by IL-8 (Tables 1-3).

[1] = MF3 CD34+ cells, ladarixin 20 μM, no IL-8
[2] = MF4 CD34+ cells, ladarixin 10 μM + IL-8 10 ng
[3] = MF4 CD34+ cells, ladarixin 10 μM + IL-8 20 ng
[4] = MF4 CD34+ cells, ladarixin 10 μM + IL-8 50 ng
[5] = MF4 CD34+ cells, ladarixin 10 μM + IL-8 100 ng
[6] = MF4 CD34+ cells, ladarixin 10 μM, no IL-8
[7] = MF4 CD34+ cells, ladarixin 20 μM + IL-8 20 ng
[8] = MF4 CD34+ cells, ladarixin 20 μM, no IL-8
[9] = MF5 CD34+ cells, ladarixin 10 μM + IL-8 10 ng
[10] = MF5 CD34+ cells, ladarixin 10 μM + IL-8 20 ng
[11] = MF5 CD34+ cells, ladarixin 10 μM + IL-8 50 ng
[12] = MF5 CD34+ cells, ladarixin 10 μM + IL-8 100 ng
[13] = MF5 CD34+ cells, ladarixin 10 μM, no IL-8
[14] = MF5 CD34+ cells, ladarixin 20 μM + IL-8 20 ng
[15] = MF5 CD34+ cells, ladarixin 20 μM, no IL-8
[16] = MF6 CD34+ cells, ladarixin 10 μM + IL-8 10 ng
[17] = MF6 CD34+ cells, ladarixin 10 μM + IL-8 20 ng
[18] = MF6 CD34+ cells, ladarixin 10 μM + IL-8 50 ng
[19] = MF6 CD34+ cells, ladarixin 10 μM + IL-8 100 ng
[20] = MF6 CD34+ cells, ladarixin 10 μM, no IL-8
[21] = MF6 CD34+ cells, ladarixin 20 μM + IL-8 20 ng
[22] = MF6 CD34+ cells, ladarixin 20 μM, no IL-8

C[C@@H](C(=O)NS(C)(=O)=O)c1ccc(OS(=O)(=O)C(F)(F)F)cc1 [Ladarixin, R(-)-2-[(4′-trifluoromethanesulfonyloxy)phenyl]-N-methanesulfonyl propionamide]
number of colonies, Homo (JAK2V617F homozygous) [1]: 49
number of colonies, WT (JAK2 wild type) [1]: 35
number of colonies, Heter (JAK2V617F heterozygous) [2]: 137
number of colonies, Homo (JAK2V617F homozygous) [2]: 0
number of colonies, Wild (JAK2 wild type) [2]: 0
number of colonies, Heter (JAK2V617F heterozygous) [3]: 113
number of colonies, Homo (JAK2V617F homozygous) [3]: 0
number of colonies, Wild (JAK2 wild type) [3]: 0
number of colonies, Heter (JAK2V617F heterozygous) [4]: 137
number of colonies, Homo (JAK2V617F homozygous) [4]: 0
number of colonies, Wild (JAK2 wild type) [4]: 0
number of colonies, Heter (JAK2V617F heterozygous) [5]: 112
number of colonies, Homo (JAK2V617F homozygous) [5]: 7
number of colonies, Wild (JAK2 wild type) [5]: 0
number of colonies, Heter (JAK2V617F heterozygous) [6]: 163
number of colonies, Homo (JAK2V617F homozygous) [6]: 23
number of colonies, Wild (JAK2 wild type) [6]: 0
number of colonies, Heter (JAK2V617F heterozygous) [7]: 134
number of colonies, Homo (JAK2V617F homozygous) [7]: 0
number of colonies, Wild (JAK2 wild type) [7]: 0
number of colonies, Heter (JAK2V617F heterozygous) [8]: 142
number of colonies, Homo (JAK2V617F homozygous) [8]: 0
number of colonies, Wild (JAK2 wild type) [8]: 0
number of colonies, Heter (JAK2V617F heterozygous) [9]: 0
number of colonies, Homo (JAK2V617F homozygous) [9]: 0
number of colonies, Wild (JAK2 wild type) [9]: 148
number of colonies, Heter (JAK2V617F heterozygous) [10]: 0
number of colonies, Homo (JAK2V617F homozygous) [10]: 0
number of colonies, Wild (JAK2 wild type) [10]: 138
number of colonies, Heter (JAK2V617F heterozygous) [11]: 0
number of colonies, Homo (JAK2V617F homozygous) [11]: 0
number of colonies, Wild (JAK2 wild type) [11]: 151
number of colonies, Heter (JAK2V617F heterozygous) [12]: 0
number of colonies, Homo (JAK2V617F homozygous) [12]: 0
number of colonies, Wild (JAK2 wild type) [12]: 144
number of colonies, Heter (JAK2V617F heterozygous) [13]: 0
number of colonies, Homo (JAK2V617F homozygous) [13]: 0
number of colonies, Wild (JAK2 wild type) [13]: 107
number of colonies, Heter (JAK2V617F heterozygous) [14]: 0
number of colonies, Homo (JAK2V617F homozygous) [14]: 0
number of colonies, Wild (JAK2 wild type) [14]: 131
number of colonies, Heter (JAK2V617F heterozygous) [15]: 0
number of colonies, Homo (JAK2V617F homozygous) [15]: 0
number of colonies, Wild (JAK2 wild type) [15]: 141
number of colonies, Heter (JAK2V617F heterozygous) [16]: 0
number of colonies, Homo (JAK2V617F homozygous) [16]: 0
number of colonies, Wild (JAK2 wild type) [16]: 119
number of colonies, Heter (JAK2V617F heterozygous) [17]: 0
number of colonies, Homo (JAK2V617F homozygous) [17]: 0
number of colonies, Wild (JAK2 wild type) [17]: 121
number of colonies, Heter (JAK2V617F heterozygous) [18]: 0
number of colonies, Homo (JAK2V617F homozygous) [18]: 0
number of colonies, Wild (JAK2 wild type) [18]: 122
number of colonies, Heter (JAK2V617F heterozygous) [19]: 0
number of colonies, Homo (JAK2V617F homozygous) [19]: 0
number of colonies, Wild (JAK2 wild type) [19]: 119
number of colonies, Heter (JAK2V617F heterozygous) [20]: 0
number of colonies, Homo (JAK2V617F homozygous) [20]: 0
number of colonies, Wild (JAK2 wild type) [20]: 119
number of colonies, Heter (JAK2V617F heterozygous) [21]: 0
number of colonies, Homo (JAK2V617F homozygous) [21]: 0
number of colonies, Wild (JAK2 wild type) [21]: 106
number of colonies, Heter (JAK2V617F heterozygous) [22]: 0
number of colonies, Homo (JAK2V617F homozygous) [22]: 0
number of colonies, Wild (JAK2 wild type) [22]: 105
numbers of JAK2V617F positive colonies stimulated by IL-8 (addition of Ladarixin, 6 MF cases): reduced
